Results: patent US20080095822A1, “Active Substance Delivery System Comprising A Hydrogel Atrix And Microcarriers” (UNIVERSITE DE LIEGE, priority 2004, published 2008)

Test: release of LNG from PHEMA hydrogel matrix into purified water (HPLC-UV)
Format: physicochemical
Conditions: LNG directly in matrix, after 10 days, purified water 37° C.

release rate after stabilisation: around 10 μg/day
SMILES: C#C[C@]1(O)CC[C@H]2[C@@H]3CCC4=CC(=O)CC[C@@H]4[C@H]3CC[C@@]21CC [LNG, levonorgestrel]
